These results are taken from article PMC10047490, “Novel Generation of FAP Inhibitor-Based Homodimers for Improved Application in Radiotheranostics” (Cancers, 2023).

The subject of one test is FAP. The following applies: different assay conditions; cited from earlier work.
Test [1] concerns the target T1, DPP8 (dipeptidyl peptidase VIII) (Homo sapiens, UniProt Q6V1X1).
T1 construct: made in house
The test is described as follows: In vitro inhibition assay (IC50), DPP8, substrate Ala-Pro-pNA. The class given is biochemical. The following applies: for IC50: 300 µM Ala-Pro-pNA, pH 7.4, 37 °C. On the procedure: (§1) rhFAP (recombinant human fibroblast activation protein), DPP8 (dipeptidyl peptidase VIII) and DPP9 (dipeptidyl peptidase IX) were expressed and purified as described previously. DPP4 (dipeptidyl peptidase IV) was purified from human seminal plasma as described previously. Human recombinant PREP (prolylendopeptidase) was expressed and purified as described before.
(§2) All enzymatic activities were determined kinetically for 15 min at 37 °C by measuring initial velocities of AMC release (λex = 380 nm and λem = 465 nm) or pNA release (405 nm) from the substrates mentioned above with an Infinite 200 plate reader from Tecan Group Ltd. (Männedorf, Switzerland). The Magellan software was used to process the data, and data fitting was performed using a non-linear fitting model in Grafit 7.4. All IC50 measurements were carried out in triplicate with at least eight different inhibitor concentrations tested.

Test [2] has as its target T2, rhFAP (recombinant human fibroblast activation protein) (Homo sapiens, UniProt Q12884).
T2 construct: made in house
T2 sequence (Q12884 1-760): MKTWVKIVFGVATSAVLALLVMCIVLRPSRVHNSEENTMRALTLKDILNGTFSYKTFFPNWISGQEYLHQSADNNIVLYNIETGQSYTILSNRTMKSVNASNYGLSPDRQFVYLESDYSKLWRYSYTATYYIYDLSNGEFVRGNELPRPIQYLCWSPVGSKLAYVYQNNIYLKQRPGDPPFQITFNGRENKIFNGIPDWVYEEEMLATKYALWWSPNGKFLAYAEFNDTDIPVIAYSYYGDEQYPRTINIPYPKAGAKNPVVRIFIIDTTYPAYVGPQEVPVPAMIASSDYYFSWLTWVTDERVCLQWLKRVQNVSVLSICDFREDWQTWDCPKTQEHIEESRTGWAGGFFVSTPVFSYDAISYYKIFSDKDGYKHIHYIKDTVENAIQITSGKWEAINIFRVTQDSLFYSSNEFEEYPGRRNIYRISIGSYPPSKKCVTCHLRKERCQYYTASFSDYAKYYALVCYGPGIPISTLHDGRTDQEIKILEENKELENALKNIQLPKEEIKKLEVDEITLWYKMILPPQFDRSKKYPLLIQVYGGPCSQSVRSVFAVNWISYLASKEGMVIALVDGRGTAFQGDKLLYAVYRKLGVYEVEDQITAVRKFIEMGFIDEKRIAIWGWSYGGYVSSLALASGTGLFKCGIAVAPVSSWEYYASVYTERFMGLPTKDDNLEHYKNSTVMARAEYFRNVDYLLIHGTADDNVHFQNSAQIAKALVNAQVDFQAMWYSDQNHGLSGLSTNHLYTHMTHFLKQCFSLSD
Kind of test: In vitro inhibition assay (IC50), FAP, substrate Z-Gly-Pro-AMC. The class given is biochemical. Conditions: for IC50 values for FAP (in words): summary statement on Table 3. On the procedure: as §1
(§3) IC50 measurements for FAP and PREP were carried out as described before. […] For PREP, N-succinyl-Gly-Pro-AMC (Bachem) at a final concentration of 250 µM at pH 7.4 in 0.1 M K-phosphate, 1 mM EDTA, 1 mM DTT and 1 mg/mL BSA buffer was used.
as §2

For test [3], the target named is T3, DPP9 (dipeptidyl peptidase IX) (Homo sapiens, UniProt Q86TI2).
T3 construct: made in house
T3 sequence (Q86TI2 whole entry, species assumed): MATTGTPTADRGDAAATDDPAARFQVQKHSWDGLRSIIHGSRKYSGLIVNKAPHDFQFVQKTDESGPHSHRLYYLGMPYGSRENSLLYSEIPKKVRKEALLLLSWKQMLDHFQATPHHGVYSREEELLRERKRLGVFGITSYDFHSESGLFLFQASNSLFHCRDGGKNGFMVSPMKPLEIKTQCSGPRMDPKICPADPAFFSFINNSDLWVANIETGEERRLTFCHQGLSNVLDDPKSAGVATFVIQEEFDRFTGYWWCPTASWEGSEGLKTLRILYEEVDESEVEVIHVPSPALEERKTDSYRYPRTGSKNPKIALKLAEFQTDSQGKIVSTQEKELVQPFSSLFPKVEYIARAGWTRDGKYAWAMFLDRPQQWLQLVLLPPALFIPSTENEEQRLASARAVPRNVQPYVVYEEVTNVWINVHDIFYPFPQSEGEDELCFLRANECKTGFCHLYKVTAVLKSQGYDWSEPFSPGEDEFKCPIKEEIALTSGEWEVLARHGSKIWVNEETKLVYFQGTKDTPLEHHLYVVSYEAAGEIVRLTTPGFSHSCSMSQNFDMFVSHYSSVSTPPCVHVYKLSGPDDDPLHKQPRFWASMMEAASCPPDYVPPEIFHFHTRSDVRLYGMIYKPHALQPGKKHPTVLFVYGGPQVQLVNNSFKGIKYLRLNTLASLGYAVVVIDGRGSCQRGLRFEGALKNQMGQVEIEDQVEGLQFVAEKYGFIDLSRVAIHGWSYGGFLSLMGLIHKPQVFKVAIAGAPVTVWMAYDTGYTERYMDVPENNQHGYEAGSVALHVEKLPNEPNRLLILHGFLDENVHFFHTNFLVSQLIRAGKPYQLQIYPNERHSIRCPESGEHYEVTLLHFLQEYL
The test is described as follows: In vitro inhibition assay (IC50), DPP9, substrate Ala-Pro-pNA. The test is classed as biochemical. Conditions: for IC50: 150 µM Ala-Pro-pNA, pH 7.4, 37 °C; for SI(DPP9/FAP): selectivity index = IC50(DPP9)/IC50(FAP). The protocol:
as §1, §2

The target in test [4] is T4, Human recombinant PREP (prolylendopeptidase) (Homo sapiens, UniProt P48147).
T4 construct: made in house
T4 sequence (P48147 1-710): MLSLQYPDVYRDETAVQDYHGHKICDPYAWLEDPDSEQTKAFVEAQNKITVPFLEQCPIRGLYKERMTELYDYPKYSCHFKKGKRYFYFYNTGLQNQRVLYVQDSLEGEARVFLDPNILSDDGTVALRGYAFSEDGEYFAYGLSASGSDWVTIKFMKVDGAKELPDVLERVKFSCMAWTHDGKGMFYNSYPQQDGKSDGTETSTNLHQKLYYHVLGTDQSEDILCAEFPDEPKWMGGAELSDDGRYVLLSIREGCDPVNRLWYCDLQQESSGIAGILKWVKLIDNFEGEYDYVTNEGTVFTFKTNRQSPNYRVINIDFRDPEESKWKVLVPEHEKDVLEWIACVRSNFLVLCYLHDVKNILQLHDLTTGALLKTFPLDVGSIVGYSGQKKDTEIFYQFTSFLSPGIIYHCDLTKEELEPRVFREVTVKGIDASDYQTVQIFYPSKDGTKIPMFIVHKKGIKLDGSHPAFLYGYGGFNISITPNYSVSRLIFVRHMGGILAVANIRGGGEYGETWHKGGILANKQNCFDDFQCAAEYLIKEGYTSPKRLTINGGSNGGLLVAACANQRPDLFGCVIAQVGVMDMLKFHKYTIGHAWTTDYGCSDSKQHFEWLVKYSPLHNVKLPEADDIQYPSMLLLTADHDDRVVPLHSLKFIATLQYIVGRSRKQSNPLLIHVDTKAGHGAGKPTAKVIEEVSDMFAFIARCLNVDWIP
Kind of test: In vitro inhibition assay (IC50), PREP, substrate N-succinyl-Gly-Pro-AMC. The class given is biochemical. Conditions: for IC50: 250 µM N-succinyl-Gly-Pro-AMC, pH 7.4, 37 °C; for SI(PREP/FAP): selectivity index = IC50(PREP)/IC50(FAP). The protocol: as §1, §3, §2

The target in test [5] is T5, DPP4 (dipeptidyl peptidase IV) purified from human seminal plasma (Homo sapiens, UniProt P27487).
T5 construct: DPP4 (dipeptidyl peptidase IV) was purified from human seminal plasma; from tissue; host or cells: human seminal plasma
T5 sequence (P27487 whole entry): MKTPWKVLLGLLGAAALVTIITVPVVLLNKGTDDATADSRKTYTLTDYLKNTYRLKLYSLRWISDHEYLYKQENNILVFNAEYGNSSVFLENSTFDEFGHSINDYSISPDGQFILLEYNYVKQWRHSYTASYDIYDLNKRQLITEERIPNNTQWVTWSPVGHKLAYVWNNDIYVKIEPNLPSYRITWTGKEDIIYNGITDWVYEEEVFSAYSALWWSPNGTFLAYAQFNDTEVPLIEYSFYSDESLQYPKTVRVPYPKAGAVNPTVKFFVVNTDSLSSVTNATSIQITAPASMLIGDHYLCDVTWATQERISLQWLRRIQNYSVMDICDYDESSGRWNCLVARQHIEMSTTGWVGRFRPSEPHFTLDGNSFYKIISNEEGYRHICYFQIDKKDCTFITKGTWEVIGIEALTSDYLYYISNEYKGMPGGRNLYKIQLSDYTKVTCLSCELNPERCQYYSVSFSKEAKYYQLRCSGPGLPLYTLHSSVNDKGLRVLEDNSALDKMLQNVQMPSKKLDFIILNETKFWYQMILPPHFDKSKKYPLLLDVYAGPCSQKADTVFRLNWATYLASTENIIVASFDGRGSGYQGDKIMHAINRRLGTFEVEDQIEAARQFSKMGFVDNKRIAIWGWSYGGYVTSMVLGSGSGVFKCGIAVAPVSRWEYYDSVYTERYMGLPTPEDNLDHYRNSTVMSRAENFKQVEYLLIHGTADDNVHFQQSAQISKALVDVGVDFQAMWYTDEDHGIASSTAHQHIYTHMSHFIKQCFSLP
Kind of test: In vitro inhibition assay (IC50), DPP4, substrate Ala-Pro-pNA. The test is classed as biochemical. The following applies: for IC50: 25 µM Ala-Pro-pNA, pH 7.4, 37 °C; for SI(DPP4/FAP): selectivity index = IC50(DPP4)/IC50(FAP). The protocol:
as §1, §2

For test [6], the target named is T1, DPP8 (dipeptidyl peptidase VIII). The following applies: from previous works; cited from earlier work.

Like-named read-outs stand apart in the source and are kept apart here.

T1 sequence (Q6V1X1 whole entry, species assumed): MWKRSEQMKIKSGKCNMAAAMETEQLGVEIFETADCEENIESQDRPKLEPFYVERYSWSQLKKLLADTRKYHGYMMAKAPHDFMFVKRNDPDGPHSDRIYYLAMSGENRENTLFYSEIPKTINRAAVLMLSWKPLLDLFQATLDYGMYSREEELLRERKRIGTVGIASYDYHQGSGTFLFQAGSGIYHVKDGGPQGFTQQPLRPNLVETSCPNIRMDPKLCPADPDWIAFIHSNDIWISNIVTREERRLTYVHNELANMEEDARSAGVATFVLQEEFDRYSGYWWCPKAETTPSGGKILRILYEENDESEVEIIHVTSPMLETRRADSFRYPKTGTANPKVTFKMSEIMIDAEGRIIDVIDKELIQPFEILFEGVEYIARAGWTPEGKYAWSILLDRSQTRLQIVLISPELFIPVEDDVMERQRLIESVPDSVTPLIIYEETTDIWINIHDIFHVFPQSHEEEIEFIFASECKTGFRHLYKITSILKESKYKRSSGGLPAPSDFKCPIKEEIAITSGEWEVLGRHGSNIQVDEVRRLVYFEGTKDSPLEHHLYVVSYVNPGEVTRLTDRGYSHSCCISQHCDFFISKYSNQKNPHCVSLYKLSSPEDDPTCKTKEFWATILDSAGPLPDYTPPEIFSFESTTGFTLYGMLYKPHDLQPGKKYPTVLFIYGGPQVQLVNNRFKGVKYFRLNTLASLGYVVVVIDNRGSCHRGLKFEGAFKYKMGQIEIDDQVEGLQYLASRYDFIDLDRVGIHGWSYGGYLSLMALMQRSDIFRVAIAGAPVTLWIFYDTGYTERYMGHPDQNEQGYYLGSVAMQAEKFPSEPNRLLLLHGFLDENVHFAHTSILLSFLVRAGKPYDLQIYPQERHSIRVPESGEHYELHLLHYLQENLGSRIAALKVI

What is called IC50 is the concentration that gives 50% inhibition. For `N#C[C@@H]1CC(F)(F)CN1C(=O)CNC(=O)c1ccnc2c(NC(=O)CCC(=O)NCCCC[C@H](NC(=O)CCC(=O)Nc3cccc4c(C(=O)NCC(=O)N5CC(F)(F)C[C@H]5C#N)ccnc34)C(=O)NCCNC(=O)CC[C@H](C(=O)O)N3CCN(CC(=O)O)CCN(CC(=O)O)CCN(CC(=O)O)CC3)cccc12` [BiOncoFAP-DOTAGA], the IC50 in the test on FAP is 0.17 nM.

`N#C[C@@H]1CC(F)(F)CN1C(=O)CNC(=O)c1ccnc2ccc(OCCCCNC(=O)CC[C@H](NC(=O)CN3CCN(CC(=O)O)CCN(CC(=O)O)CCN(CC(=O)O)CC3)C(=O)NCCCCOc3ccc4nccc(C(=O)NCC(=O)N5CC(F)(F)C[C@H]5C#N)c4c3)cc12` [DO3A.Glu.(FAPi)2, 2,2′,2″-(10-(2-(((S)-1,5-bis((4-((4-((2-((S)-2-Cyano-4,4-difluoropyrrolidin-1-yl)-2-oxoethyl)-carbamoyl)quinolin-6-yl)oxy)butyl)amino)-1,5-dioxopentan-2-yl)amino)-2-oxoethyl)-1,4,7,10-tetraazacyclododecane-1,4,7-triyl)triacetic acid] returned an IC50 in test [1] of 1030 ± 180 nM. Moreover, the “SI(DPP8/FAP)” value in test [1] (selectivity index = IC50(DPP8)/IC50(FAP)) is listed as 1717. Also, the “IC50 values for FAP (in words)” value in test [2] is reported as “subnanomolar”. In test [3], the IC50 was determined as 950 ± 110 nM and the “SI(DPP9/FAP)” value is recorded as 1583. In addition, in test [4], the IC50 came out at 1000 ± 140 nM and the “SI(PREP/FAP)” value was determined as 1667. Further, in test [5], it took 540 ± 60 nM to reach half-maximal inhibition (IC50) and the “SI(DPP4/FAP)” value worked out at 900.

Consider `N#C[C@@H]1CC(F)(F)CN1C(=O)CNC(=O)c1ccnc2ccc(OCCCCNC(=O)CC[C@H](NC(=O)CCC(C(=O)O)N3CCN(CC(=O)O)CCN(CC(=O)O)CCN(CC(=O)O)CC3)C(=O)NCCCCOc3ccc4nccc(C(=O)NCC(=O)N5CC(F)(F)C[C@H]5C#N)c4c3)cc12` (stereo partly drawn) [DOTAGA.Glu.(FAPi)2, 2,2′,2″-(10-(4-(((S)-1,5-bis((4-((4-((2-((S)-2-Cyano-4,4-difluoropyrrolidin-1-yl)-2-oxoethyl)-carbamoyl)quinolin-6-yl)oxy)butyl)amino)-1,5-dioxopentan-2-yl)amino)-1-carboxy-4-oxobutyl)-1,4,7,10-tetraazacyclododecane-1,4,7-triyl)triacetic acid], for which the IC50 in test [1] was found to be 29 ± 4 nM; in test [2] (50 µM Z-Gly-Pro-AMC, pH 8.0, 37 °C, triplicate) it was 0.26 ± 0.04 nM; in test [3], 83 ± 1.5 nM; in test [4] it was 590 ± 100 nM; in test [5] it was 1190 ± 80 nM. The “IC50 values for FAP (in words)” value in test [2] was “subnanomolar”. The “SI(DPP9/FAP)” value in test [3] was found to be 319. For the same compound, the “SI(PREP/FAP)” value in test [4] amounted to 2269. Further, the “SI(DPP4/FAP)” value in test [5] came to 4577.

As for `N#C[C@@H]1CC(F)(F)CN1C(=O)CNC(=O)c1ccnc2ccccc12` [UAMC-1110], the IC50 in test [6] was above 10000 nM.
